From EP0706509B1, “SHORT CHAIN 2-HYDROXYCARBOXYLIC ACID-BASED DERIVATIVES OF CERAMIDES” (DSM N.V., priority 1994, dated 1995)

Legend:
[1] = test system: barrier function of the skin; test: Skin colour by chromametry (Minolta Chromameter CR 300) on volar forearms, 7 days of treatment then SDS irritation; format: in vivo, human; design: key: CIE a* value (green-red axis); higher = redder skin
Procedure: Skin colour was measured by chromametry with a Minolta Chromameter CR 300 (Minolta, Ahrensburg, Germany) in compliance with the Commission International de l'eclairage (CIE) system, according to which the registration of colour is adjusted to the non-linear colour sensitivity of human eye. A colour is expressed in a three-dimensional coordinate system with green-red (a*), yellow-blue (b*) and L* axes (brightness). The skin surface is illuminated by a Xenon flash light and remitted light registered and analysed by a photoreceiver. Chromametry is sensitive and accurate for the characterization of redness of skin irritation. In inflamed skin a positive change on the a* axis is observed, towards red. Each value was the average of three recordings.
(§1) Two panels of each five female volunteers at the age of 19-55 years with healthy skin were included in the test.
(§2) Measurements were carried out at a temperature of 22±1°C and a relative humidity of 60±10%. Subjects were accustomed to ambient conditions for 20 min prior to any measurement. The test was carried out on the volar forearms. Initially untreated skin was measured in all six areas to find baseline values. Then the five test products were applied, one area remained untreated. The dose of applicaton was about 2 mg/cm^2. In the following 7 days a home application in the morning and evening took place. Measurements were evaluated during the treatment period on day 7 two hours after the last daily application. Then the test areas on both forearms were treated with a 5% aqueous solution of sodium lauryl sulphate (SDS) and an occlusive dressing applied to induce skin irritation. The dressing was removed two hours later, and the regions were gently washed with water and air-dried. After one hour the measurements were done when the level had stabilised.
(§3) Use of other cosmetic products was restricted on the test areas throughout the whole study.
(§4) • before start treatment; • two hours after last application on day 7; • 1 hour after irritation with SDS (2 hours under occlusion).

[2] = test system: healthy human skin; test: Desquamation: dansyl chloride fluorescence extraction score on volar forearms, 7 days of treatment then SDS irritation; format: in vivo
Procedure: The stratum corneum was stained with dansyl chloride. Dansyl chloride was mixed to homogeneity at 5% (w/w) in petrolatum and applied to the volar forearms of the volunteers under semi-occlusive tape, one day before the beginning of the study. After 24 h the patches were removed and any excess material wiped off under running tape water. Fluorescence was assessed under UV illumination for intensity and homogeneity by a trained evaluator using the following scale for fluorescence extraction: • 0 : no fluorenscence extraction • 1 : slight fluorescence extraction • 2 : moderate fluorescence extraction • 3 : strong fluorescence extraction • 4 : complete fluorescence extraction. Half scores were used when needed.
as §1, §2, §3, §4

[3] = test system: healthy human skin; test: Skin roughness by profilometry (mean depth of roughness Rz) on volar forearms, 7 days of treatment then SDS irritation; format: in vivo; design: unit not given here
Procedure: Roughness was measured by profilometry using a stylus instrument (OFR 01; Romano GmbH, Cologne, Germany). Silicon impressions from the test areas of the volar forearm were prepared. The dental mass Silasoft N® (Detax-K. Huber K.G., Karlsruhe, Germany) was used for making the impressions. The parameter mean depth of roughness Rz (DIN 4768/1) was measured. By convention the scan length was divided into […] equal-sized areas. In each area the distance from the highest peak to the lowest trough was established. The average of these five distances is Rz.
as §1, §2, §3, §4

[4] = test system: barrier function of the skin; test: Trans-epidermal water loss (TEWL, Tewameter) on volar forearms, 7 days of treatment then SDS irritation; format: in vivo, human; design: unit not given here
Procedure: Measurements of trans-epidermal water loss (TEWL) were performed with the Tewameter (Courage & Khazaka, Cologne, Germany). The Tewameter is a device for measurement of water evaporation on skin surfaces based on the diffusion principle discovered by A. Fick in 1885.
as §1, §2, §3, §4

[5] = 0.05% in oil-in-water emulsion, 7 days pretreatment, after SDS (5% aqueous, 2 h occlusion, measured 1 h later)
[6] = 0.05% in oil-in-water emulsion, about 2 mg/cm^2 morning and evening, after 7 days
[7] = 0.05% in oil-in-water emulsion, day 0 (baseline before start of treatment)
[8] = 0.2% in oil-in-water emulsion, 7 days pretreatment, after SDS (5% aqueous, 2 h occlusion, measured 1 h later)
[9] = 0.2% in oil-in-water emulsion, about 2 mg/cm^2 morning and evening, after 7 days
[10] = 0.2% in oil-in-water emulsion, day 0 (baseline before start of treatment)
[11] = 0.5% in oil-in-water emulsion, 7 days pretreatment, after SDS (5% aqueous, 2 h occlusion, measured 1 h later)
[12] = 0.5% in oil-in-water emulsion, about 2 mg/cm^2 morning and evening, after 7 days
[13] = 0.5% in oil-in-water emulsion, day 0 (baseline before start of treatment)
[14] = 0.05% in oil-in-water emulsion, 7 days pretreatment, after SDS (5% aqueous, 2 h occlusion), scale 0 to 4
[15] = 0.05% in oil-in-water emulsion, morning and evening, after 7 days, scale 0 (no) to 4 (complete fluorescence extraction)
[16] = 0.05% in oil-in-water emulsion, day 0 (baseline), scale 0 (no) to 4 (complete fluorescence extraction)
[17] = 0.2% in oil-in-water emulsion, 7 days pretreatment, after SDS (5% aqueous, 2 h occlusion), scale 0 to 4
[18] = 0.2% in oil-in-water emulsion, day 0 (baseline), scale 0 (no) to 4 (complete fluorescence extraction)
[19] = 0.5% in oil-in-water emulsion, 7 days pretreatment, after SDS (5% aqueous, 2 h occlusion), scale 0 to 4
[20] = 0.5% in oil-in-water emulsion, day 0 (baseline), scale 0 (no) to 4 (complete fluorescence extraction)

Compound | skin colour [1, 5] | skin colour [1, 6] | skin colour [1, 7] | skin colour [1, 8] | skin colour [1, 9] | skin colour [1, 10] | skin colour [1, 11] | skin colour [1, 12] | skin colour [1, 13] | Desquamation (fluorescence extraction) [2, 14] | Desquamation (fluorescence extraction) [2, 15] | Desquamation (fluorescence extraction) [2, 16] | Desquamation (fluorescence extraction) [2, 17] | Desquamation (fluorescence extraction) [2, 18] | Desquamation (fluorescence extraction) [2, 19] | Desquamation (fluorescence extraction) [2, 20] | Skin roughness [3, 5] | Skin roughness [3, 6] | Skin roughness [3, 7] | Skin roughness [3, 8] | further results
CCCCCCCCCCCCCC[C@@H](O)[C@@H](O)[C@H](CO)NC(=O)[C@H](C)O [Cer6/OH-C3, N-[(S)-2-hydroxypropanoyl]-phytosphingosine] | 13.1 ± 1.8 | 7.6 ± 0.8 | 6.7 ± 0.4 | 11.4 ± 0.6 | 8.5 ± 0.9 | 7.8 ± 0.9 | 9.5 ± 1.3 | 8.7 ± 0.7 | 8.2 ± 0.5 | 0,8 ± 0,4 | 0,2 ± 0,4 | 0 | 1 ± 0 | 0 | 1 ± 0 | 0 | 96.9 ± 8.1 | 109.1 ± 16.4 | 131.2 ± 15.5 | 92.9 ± 9.7 | Desquamation (fluorescence extraction) ([2]; 0.2% in oil-in-water emulsion, morning and evening, after 7 days, scale 0 (no) to 4 (complete fluorescence extraction)): 0,2 ± 0,4; Skin roughness [3, 9]: 91.9 ± 9.9; Skin roughness [3, 10]: 104.7 ± 9; Skin roughness [3, 11]: 116.5 ± 14.8; Skin roughness [3, 12]: 112.9 ± 15.2; Skin roughness [3, 13]: 131.1 ± 15.2; TEWL [4, 5]: 16.6 ± 5.2; TEWL [4, 6]: 8.2 ± 3.5; TEWL [4, 7]: 5 ± 1.1; TEWL [4, 8]: 13.5 ± 6; TEWL [4, 9]: 7.2 ± 1.6; TEWL [4, 10]: 6.1 ± 1.5; TEWL [4, 11]: 11.6 ± 3.3; TEWL [4, 12]: 8 ± 1.9; TEWL [4, 13]: 6 ± 1.2
CCCCCCCCCCCCCC[C@@H](O)[C@@H](O)[C@H](CO)NC(=O)C(O)CCCCCC (stereo partly shown) [Cer6/OH-C8, N-(2-hydroxyoctanoyl)-phytosphingosine] | 9.2 ± 0.8 | 6.2 ± 1.2 | 7 ± 1.2 | 8.4 ± 0.5 | 6.3 ± 0.7 | 6.8 ± 0.5 | 10.2 ± 0.9 | 8.3 ± 1.1 | 6.5 ± 0.6 | 0.8 ± 0.4 | 0,4 ± 0,5 | 0 | 0,8 ± 0,4 | 0 | 1 ± 0 | 0 | 121.8 ± 11.6 | 119.1 ± 8.8 | 133.6 ± 12.5 | 118.7 ± 7.6 | Desquamation (fluorescence extraction) ([2]; 0.5% in oil-in-water emulsion, morning and evening, after 7 days, scale 0 (no) to 4 (complete fluorescence extraction)): 0,4 ± 0,5; Skin roughness [3, 9]: 118.5 ± 8.2; Skin roughness [3, 10]: 147.1 ± 15.5; Skin roughness [3, 11]: 82.2 ± 7.1; Skin roughness [3, 12]: 98 ± 6.9; Skin roughness [3, 13]: 111.2 ± 6; TEWL [4, 5]: 14.7 ± 4.2; TEWL [4, 6]: 5.7 ± 1.9; TEWL [4, 7]: 5.7 ± 1.3; TEWL [4, 8]: 10.12 ± 1.9; TEWL [4, 9]: 5.5 ± 1.6; TEWL [4, 10]: 5.4 ± 0.7; TEWL [4, 11]: 13 ± 4.4; TEWL [4, 12]: 7.9 ± 2.7; TEWL [4, 13]: 6.5 ± 2.2
